According to patent publication US10532068B2, “Dual molecular delivery of oligonucleotides and peptide containing conjugates” (Merck Sharp & Dohme Corp., priority 2013, dated 2020):
Where no end group is shown, it is not given here. [ ]: non-standard residue; d: D form. S‑S‑TGN = not defined here; TGN = not defined here

Tested on: CTNNB1
Assay: In vivo evaluation in mice: liver mRNA knockdown measurement (TaqMan qPCR)
Set-up: species or system CD-1 mice
Description: Female CD-1 mice (Charles River) were injected in accordance with either a sequential dosing paradigm or a co-dosing paradigm. In the sequential dosing paradigm, the targeted siRNA (SCE) is dosed at t=0 and the targeted peptide is separately dosed up to 2 hr before the SCE (−2 hr) or up to 24 hr after the SCE (+24 hr). In the co-dosing paradigm, the SCE and peptides are co-formulated and dosed together in the same formulation as a single injection at t=0. The mice were dosed either by intravenous (i.v.) or subcutaneous (s.c.) injection of SCE and peptide. For the i.v. doses, the compounds were injected into the tail vein of the mice. For the s.c. doses, the compounds were injected in the subcutaneous space on the back of the mouse between the shoulder blades. At the indicated harvest times (measured from t=0 when the siRNA was dosed, regardless of when the peptide was dosed), the animals were sacrificed and 3 mm liver punches were collected, preserved in RNAlater (Ambion), and stored at 4° C. Separate 5 mm liver punches were collected, placed in 96-well plates, frozen on dry ice, and stored at −80° C. until use.
The 3 mm liver punches were removed from RNAlater and homogenized in Trizol (Invitrogen) using a bead mill tissue lyser (Qiagen); disruption was performed for two 5-minute cycles at 30 Hz. RNA extraction was performed using 1-bromo-2-chloropropane (Acros Organics) and total RNA was isolated from the aqueous phase using the MagMax RNA isolation method (Ambion). […] TaqMan qPCR analysis was performed with an ABI 7900 Real-Time PCR System using TaqMan Fast Advanced Master Mix (Applied Biosystems). All TaqMan probes and primers for CTNNB1 and PPIB (housekeeping gene) were purchased from Applied Biosystems as pre-validated gene expression assays. Results are calculated by the comparative Ct method, where the difference between the CTNNB1 Ct value and the PPIB Ct value (ΔCt) is calculated and then further normalized relative to the PBS control by taking a second difference (ΔΔCt), as described previously (1).

[1] = Table 6, mice, sequential, peptide IV 15 min after siRNA IV, TGN-L-siRNA-III 0.25 mg/kg, peptide 2 mg/kg
[2] = Table 6, mice, sequential, peptide IV 15 min after siRNA IV, TGN-L-siRNA-III 0.25 mg/kg, peptide 10 mg/kg
[3] = Table 6, mice, sequential, peptide IV 15 min after siRNA IV, TGN-L-siRNA-III 0.5 mg/kg, peptide 5 mg/kg
[4] = Table 6, mice, sequential, peptide IV 15 min after siRNA IV, TGN-L-siRNA-III 0.25 mg/kg, peptide 5 mg/kg

With “TGN-CDM-SEQ ID NO: 1801 (D): TGN-CDM peptide, peptide glfgeieelieeglenlidwgng; C8 made from same all-D sequence (SEQ ID NO: 1074) (G[dL][dF]G[dE][dI][dE][dE][dL][dI][dE][dE]G[dL][dE][dN][dL][dI][dD][dW]G[dN]G; also: TGN-CDM conjugate; listed as Homo sapiens)” the “In vivo mRNA knockdown (%)” value (Table 8 (disulfide vs. ECL vs. CDM linkage), TGN-L-siRNA-II 0.25 mg/kg, targeted peptide 1 mg/kg) was 23.0% and the “In vivo mRNA knockdown (%)” value (Table 8 (disulfide vs. ECL vs. CDM linkage), TGN-L-siRNA-II 0.25 mg/kg, targeted peptide 3 mg/kg) was 24.9%.

For “TGN-S-S-SEQ ID NO: 935 (L) (C(TGN)GFFGEIAELIWEGLKNLIDWWNG; reading uncertain; also: TGN attached via disulfide (S-S); listed as Homo sapiens)”, the “In vivo mRNA knockdown (%)” value [1] was 17% and the “In vivo mRNA knockdown (%)” value [2] was 23%.

For “TGN-S-S-SEQ ID NO: 1248 (L) (C(TGN)FLEELWELLEHLL; reading uncertain; listed as Homo sapiens)”, the “In vivo mRNA knockdown (%)” value [3] was 24%.

“TGN-S-S-SEQ ID NO: 1403 (L) (C(TGN)GLLEEIEELLEEGLENLIDWWNS; reading uncertain; listed as Homo sapiens)” was tested, and the “In vivo mRNA knockdown (%)” value [1] was 22% and the “In vivo mRNA knockdown (%)” value [2] was 24%.

“TGN-S-S-SEQ ID NO: 1489 (D) ([dC](S‑S‑TGN)[dL][dE][dL][dW][dL][dE][dH][dL][dF][dL][dE][dL][dE]; reading uncertain; also: Cys disulfide-linked to TGN peptide; listed as Homo sapiens)” was tested, and the “In vivo mRNA knockdown (%)” value (Table 6, mice, sequential, peptide IV 15 min after siRNA IV, TGN-L-siRNA-III 0.5 mg/kg, peptide 2 mg/kg) was 37%, the “In vivo mRNA knockdown (%)” value (Table 6, mice, sequential, peptide IV 15 min after siRNA IV, TGN-L-siRNA-III 0.5 mg/kg, peptide 10 mg/kg) was 26% and the “In vivo mRNA knockdown (%)” value (Table 6, mice, sequential, peptide IV 15 min after siRNA IV, TGN-L-siRNA-III 0.5 mg/kg, peptide 25 mg/kg) was 34%.

In the case of “TGN-S-S-SEQ ID NO: 1516 (L) (C(TGN)GLFAEIEELLEEGLENLIDWWNG; reading uncertain; listed as Homo sapiens)”, the “In vivo mRNA knockdown (%)” value [4] is reported as 14%.

With “TGN-S-S-SEQ ID NO: 1631 (D) ([dC](S‑S‑TGN)G[dL][dF]G[dH][dI][dH][dH][dL][dI][dH][dH]G[dL][dH][dN][dL][dI][dD][dW][dW][dN]G; reading uncertain; also: Cys disulfide-linked to TGN peptide; listed as Homo sapiens)” the “In vivo mRNA knockdown (%)” value [2] was 17%.

“TGN-S-S-SEQ ID NO: 1632 (D) ([dC](S‑S‑TGN)G[dL][dF]G[dE][dI][dH][dH][dL][dI][dH][dH]G[dL][dH][dN][dL][dI][dD][dW][dW][dN]G; reading uncertain; also: Cys disulfide-linked to TGN peptide; listed as Homo sapiens)” was tested, and the “In vivo mRNA knockdown (%)” value [2] was 36%.

For “TGN-S-S-SEQ ID NO: 1633 (D) ([dC](TGN)G[dL][dF]G[dE][dI][dH][dH][dL][dI][dH][dH]G[dL][dE][dN][dL][dI][dD][dW][dW][dN]G; reading uncertain; also: Cys disulfide-linked to TGN peptide; listed as Homo sapiens)”, the “In vivo mRNA knockdown (%)” value [2] was 55%.

“TGN-S-S-SEQ ID NO: 1634 (D) ([dC](TGN)G[dL][dF]G[dE][dI][dH][dE][dL][dI][dH][dH]G[dL][dE][dN][dL][dI][dD][dW][dW][dN]G; reading uncertain; also: Cys disulfide-linked to TGN peptide; listed as Homo sapiens)” was tested, and the “In vivo mRNA knockdown (%)” value [2] was 17%.

In the case of “TGN-S-S-SEQ ID NO: 1643 (D) ([dC](TGN)G[dF][dF]G[dE][dI][dA][dE][dL][dI][dE][dE]G[dL][dK][dN][dL][dI][dD][dW]G[dN]G; reading uncertain; also: Cys disulfide-linked to TGN peptide; listed as Homo sapiens)”, the “In vivo mRNA knockdown (%)” value [2] is reported as 41%.

In the case of “TGN-S-S-SEQ ID NO: 1651 (D) ([dC](TGN)G[dL][dF][dE][dE][dI][dA][dE][dL][dI][dE][dE]G[dL][dE][dN][dL][dI][dD][dW]G[dN]G; reading uncertain; also: Cys disulfide-linked to TGN peptide; listed as Homo sapiens)”, the “In vivo mRNA knockdown (%)” value [2] is reported as 49%.

With “TGN-S-S-SEQ ID NO: 1652 (D) ([dC](TGN)[dE][dL][dF][dE][dE][dL][dA][dE][dL][dL][dW][dE]G[dL][dE][dN][dL][dI][dD][dW]G[dN][dS]; reading uncertain; also: Cys disulfide-linked to TGN peptide; listed as Homo sapiens)” the “In vivo mRNA knockdown (%)” value [2] was 37%.

With “TGN-S-S-SEQ ID NO: 1653 (D) ([dC](TGN)G[dL][dF]G[dE][dI][dA][dE][dL][dI][dW][dE]G[dL][dE][dN][dL][dI][dD][dW]G[dN]G; reading uncertain; also: Cys disulfide-linked to TGN peptide; listed as Homo sapiens)” the “In vivo mRNA knockdown (%)” value [2] was 63% and the “In vivo mRNA knockdown (%)” value (Table 6, mice, sequential, peptide IV 15 min after siRNA IV, TGN-L-siRNA-III 0.25 mg/kg, peptide 50 mg/kg) was 69%.

“TGN-S-S-SEQ ID NO: 1712 (L) (C(TGN)FLGALWKALSELLKNLIDWWNG; reading uncertain; also: Cys disulfide-linked to TGN peptide; listed as Homo sapiens)” was tested, and the “In vivo mRNA knockdown (%)” value [3] was 34%.

With “TGN-S-S-SEQ ID NO: 1713 (L): TGN-S-S-peptide, peptide CGL-R6H-GELEEL-S7H-EEGLENLIDWWNG (STAPLED)” the “In vivo mRNA knockdown (%)” value [1] was 0% and the “In vivo mRNA knockdown (%)” value [2] was 2%.

In the case of “TGN-S-S-SEQ ID NO: 1716 (L) (C(TGN)GLFEELAGLLWHGLKNLIDWWNG; reading uncertain; also: Cys disulfide-linked to TGN peptide; listed as Homo sapiens)”, the “In vivo mRNA knockdown (%)” value [3] is reported as 39%.

“TGN-S-S-SEQ ID NO: 1717(L): TGN-S-S-peptide, peptide CFLGALFHALSHLLENLIDWWNG (C(TGN)FLGALFHALSHLLENLIDWWNG; reading uncertain; also: Cys disulfide-linked to TGN peptide; listed as Homo sapiens)” was tested, and the “In vivo mRNA knockdown (%)” value [3] was 16%.

“TGN-S-S-SEQ ID NO: 1719 (L) (C(TGN)GLFAEIEELIWEGLENLIDWWNQ; reading uncertain; also: Cys disulfide-linked to TGN peptide; listed as Homo sapiens)” was tested, and the “In vivo mRNA knockdown (%)” value [4] was 25%.

“TGN-S-S-SEQ ID NO: 1725 (L) (C(TGN)SSAWWSYWPPVA; reading uncertain; also: Cys disulfide-linked to TGN peptide; listed as Homo sapiens)” was tested, and the “In vivo mRNA knockdown (%)” value [2] was 19%.

For “TGN-S-S-SEQ ID NO: 1726(D) ([dC](TGN)G[dL][dF][dA][dV][dI][dK][dK][dV][dA][dS][dV][dI]GG[dL]; reading uncertain; also: Cys disulfide-linked to TGN peptide; listed as Homo sapiens)”, the “In vivo mRNA knockdown (%)” value [2] was 23%.

For “TGN-S-S-SEQ ID NO: 1727 (D) ([dC](TGN)G[dL][dF][dA][dV][dI][dH][dH][dV][dA][dS][dV][dI]GG[dL]; reading uncertain; also: Cys disulfide-linked to TGN peptide; listed as Homo sapiens)”, the “In vivo mRNA knockdown (%)” value [2] was 26%.

For “TGN-S-S-SEQ ID NO: 1728(D) ([dC](TGN)G[dL][dF][dA][dV][dI][dE][dE][dV][dA][dS][dV][dI]GG[dL]; reading uncertain; also: Cys disulfide-linked to TGN peptide; listed as Homo sapiens)”, the “In vivo mRNA knockdown (%)” value [2] was 23%.

“TGN-S-S-SEQ ID NO: 1729 (L) (C(TGN)GPSQPTYPGDDAPVRDLIRFYRDLRRYLNVVTRHRY; reading uncertain; also: Cys disulfide-linked to TGN peptide; listed as Homo sapiens)” was tested, and the “In vivo mRNA knockdown (%)” value [2] was 10%.

“TGN-S-S-SEQ ID NO: 1730 (D): TGN-S-S-peptide, peptide CGIGAVLHVLTTGLPALISWIKRKRQQ” was tested, and the “In vivo mRNA knockdown (%)” value [2] was 43%.

With “TGN-S-S-SEQ ID NO: 1731(D): TGN-S-S-peptide, peptide CGIGAVLHVLTTGLPALISWIHHHHQQ” the “In vivo mRNA knockdown (%)” value [2] was 30%.

“TGN-S-S-SEQ ID NO: 1732 (D): TGN-S-S-peptide, peptide AC-GIFEAIAGLLKINFKC” was tested, and the “In vivo mRNA knockdown (%)” value [4] was 35%.
